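96-well plates; 48 h exposure; 5 concentrations. Endpoints by linear interpolation between flanking doses. Not reached: highest tested concentration assigned. Here, GI50 denotes the concentration required for 50% inhibition of growth.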 The source made the active and inactive calls. Rule as the data show it: active = GI50 up to about 1.1 µM and inactive = higher.
How the values were obtained:
Test in all cases: inhibition of tumour cell growth, NCI panel, 48 h
SF-539 = test system: SF-539
OVCAR-4 = test system: OVCAR-4
Malme-3M = test system: Malme-3M
A549 = test system: A549
SNB-19 = test system: SNB-19
UO-31 = test system: UO-31
RPMI-8226 = test system: RPMI-8226
HCT-116 = test system: HCT-116
OVCAR-8 = test system: OVCAR-8
UACC-62 = test system: UACC-62
SK-MEL-28 = test system: SK-MEL-28
EKVX = test system: EKVX
SK-OV-3 = test system: SK-OV-3
M14 = test system: M14
UACC-257 = test system: UACC-257
SW-620 = test system: SW-620
NCI-H226 = test system: NCI-H226

Measured: GI50

CCc1ccc(/C(C)=N/NC(N)=S)cc1
inactive: SF-539 > 100 µM | OVCAR-4 37.6 µM | Malme-3M 25.8 µM | A549 81.1 µM | SNB-19 > 100 µM | UO-31 > 100 µM | RPMI-8226 > 100 µM | HCT-116 > 100 µM | OVCAR-8 > 100 µM | UACC-62 31.8 µM | SK-MEL-28 > 100 µM | EKVX > 100 µM | SK-OV-3 > 100 µM | M14 > 100 µM

COC(=O)c1nc(-c2ccc(Cl)c(Cl)c2)nc2ccc(Cl)cc12
inactive: SF-539 17.5 µM | UACC-257 > 100 µM | Malme-3M > 100 µM | A549 97.7 µM | SNB-19 44.1 µM | UO-31 33.6 µM | RPMI-8226 > 100 µM | HCT-116 18.4 µM | OVCAR-8 47.4 µM | UACC-62 87.3 µM | SK-MEL-28 > 100 µM | SW-620 > 100 µM | EKVX 59.7 µM | SK-OV-3 20.6 µM

Cc1cc(C)nc(NS(=O)(=O)c2ccc(NC(=O)c3cccc4c(Nc5ccc(S(=O)(=O)N=C(N)N)cc5)c5ccccc5nc34)cc2)n1
inactive: SF-539 17.3 µM | OVCAR-4 14.5 µM | UACC-257 24.7 µM | Malme-3M > 100 µM | A549 62.5 µM | SNB-19 33.1 µM | UO-31 46.6 µM | RPMI-8226 15.1 µM | HCT-116 32.4 µM | OVCAR-8 7.94 µM | UACC-62 29.9 µM | SK-MEL-28 33.4 µM | SW-620 9.48 µM | EKVX 35 µM | SK-OV-3 > 100 µM | M14 94.6 µM

COc1c(Br)cc(Br)c(OC)c1-c1ccc[nH]1
inactive: SF-539 > 100 µM | OVCAR-4 22.1 µM | UACC-257 > 100 µM | A549 > 100 µM | UO-31 43.3 µM | RPMI-8226 80.4 µM | HCT-116 97.3 µM | OVCAR-8 > 100 µM | UACC-62 56.1 µM | SK-MEL-28 > 100 µM | SW-620 35 µM | EKVX > 100 µM | NCI-H226 43.9 µM | SK-OV-3 > 100 µM | M14 75.7 µM

CC(C)(C)NC(=O)NC12CC3CC(CC(F)(C3)C1)C2
inactive: SF-539 > 100 µM | UACC-257 > 100 µM | Malme-3M > 100 µM | A549 > 100 µM | SNB-19 > 100 µM | UO-31 > 100 µM | RPMI-8226 > 100 µM | HCT-116 > 100 µM | OVCAR-8 > 100 µM | UACC-62 > 100 µM | SK-MEL-28 > 100 µM | SW-620 > 100 µM | EKVX > 100 µM | SK-OV-3 > 100 µM | M14 > 100 µM

C[Si](C)(C)/C=C\CCO
inactive: SF-539 > 100 µM | UACC-257 > 100 µM | Malme-3M > 100 µM | A549 > 100 µM | SNB-19 > 100 µM | UO-31 > 100 µM | RPMI-8226 > 100 µM | HCT-116 > 100 µM | OVCAR-8 > 100 µM | UACC-62 > 100 µM | SK-MEL-28 > 100 µM | SW-620 > 100 µM | EKVX > 100 µM | SK-OV-3 > 100 µM | M14 > 100 µM

Nc1ncnc2c1ncn2CCOC(c1ccccc1)P(=O)(O)O (centres undefined)
inactive: SF-539 > 100 µM | UACC-257 > 100 µM | Malme-3M > 100 µM | A549 > 100 µM | SNB-19 > 100 µM | UO-31 > 100 µM | HCT-116 > 100 µM | OVCAR-8 > 100 µM | UACC-62 > 100 µM | SK-MEL-28 > 100 µM | SW-620 > 100 µM | EKVX > 100 µM | NCI-H226 > 100 µM | SK-OV-3 > 100 µM

c1ccc(C2(c3ccccc3)SSC3(S2)C2CC4CC(C2)CC3C4)cc1 (centres undefined)
inactive: SF-539 > 100 µM | OVCAR-4 > 100 µM | UACC-257 > 100 µM | Malme-3M > 100 µM | A549 > 100 µM | SNB-19 > 100 µM | UO-31 > 100 µM | RPMI-8226 37.2 µM | HCT-116 > 100 µM | OVCAR-8 > 100 µM | UACC-62 > 100 µM | SK-MEL-28 > 100 µM | SW-620 > 100 µM | EKVX > 100 µM | SK-OV-3 > 100 µM | M14 > 100 µM

CCCC(=O)OCC(O)CO (centres undefined)
inactive: SF-539 > 5000 µM | OVCAR-4 > 5000 µM | UACC-257 > 5000 µM | Malme-3M 3610 µM | A549 > 5000 µM | UO-31 2860 µM | RPMI-8226 2990 µM | HCT-116 > 5000 µM | OVCAR-8 2900 µM | UACC-62 2170 µM | SK-MEL-28 > 5000 µM | SW-620 > 5000 µM | NCI-H226 > 5000 µM | SK-OV-3 4970 µM | M14 > 5000 µM

CN(C)CC1CCC/C1=N\O (centres undefined)
inactive: SF-539 > 100 µM | OVCAR-4 > 100 µM | UACC-257 > 100 µM | UO-31 > 100 µM | RPMI-8226 > 100 µM | HCT-116 > 100 µM | OVCAR-8 > 100 µM | UACC-62 > 100 µM | SK-MEL-28 > 100 µM | SW-620 > 100 µM | NCI-H226 > 100 µM | SK-OV-3 > 100 µM | M14 > 100 µM

CC(=O)OC12c3ccccc3C1CCCCCC21OCCCO1 (centres undefined)
inactive: SF-539 > 100 µM | OVCAR-4 > 100 µM | A549 > 100 µM | SNB-19 > 100 µM | UO-31 > 100 µM | RPMI-8226 > 100 µM | HCT-116 > 100 µM | OVCAR-8 > 100 µM | UACC-62 > 100 µM | SK-MEL-28 > 100 µM | NCI-H226 > 100 µM | SK-OV-3 > 100 µM | M14 > 100 µM

Cc1ccc(C2=C(c3ccc(C)cc3)C(c3ccc(C)cc3)=C(c3ccc(C)cc3)C2=O)cc1
inactive: SF-539 > 100 µM | UACC-257 > 100 µM | Malme-3M > 100 µM | A549 > 100 µM | SNB-19 > 100 µM | UO-31 > 100 µM | RPMI-8226 > 100 µM | HCT-116 > 100 µM | OVCAR-8 > 100 µM | SK-MEL-28 > 100 µM | SW-620 > 100 µM | EKVX > 100 µM | NCI-H226 > 100 µM | SK-OV-3 > 100 µM | M14 > 100 µM

CC12CC3C(CC1SCC(=O)O2)C3(C)C (centres undefined)
inactive: SF-539 > 100 µM | OVCAR-4 > 100 µM | UACC-257 > 100 µM | Malme-3M > 100 µM | A549 > 100 µM | UO-31 > 100 µM | RPMI-8226 > 100 µM | HCT-116 > 100 µM | OVCAR-8 > 100 µM | SK-MEL-28 > 100 µM | EKVX > 100 µM | SK-OV-3 > 100 µM | M14 > 100 µM

CC(CC(=O)N1C(=O)C(C)(C)[C@@H](O)[C@H]1CC(C)C(Cl)(Cl)Cl)C(Cl)(Cl)Cl (some centres undefined)
inactive: SF-539 > 100 µM | OVCAR-4 > 100 µM | UACC-257 > 100 µM | Malme-3M > 100 µM | A549 > 100 µM | SNB-19 > 100 µM | UO-31 > 100 µM | RPMI-8226 > 100 µM | HCT-116 > 100 µM | OVCAR-8 > 100 µM | UACC-62 > 100 µM | SW-620 > 100 µM | EKVX > 100 µM | NCI-H226 > 100 µM | SK-OV-3 > 100 µM | M14 > 100 µM

— ChEMBL document CHEMBL1201862, “PubChem BioAssay data set” (2004)
